Data as given in patent US12358908B2, “Crystals, preparation method and application of a muscarinic receptor antagonist” (BEIJING SHOWBY PHARMACEUTICAL CO., LTD., priority 2020, dated 2025).

Columns and labels:
[1] = target: M3 receptor (Homo sapiens, UniProt P20309); conditions: selective effect on M receptor subtypes; cited from earlier work
[2] = target: T1, M2 receptor (Homo sapiens, UniProt P08172); conditions: selective effect on M receptor subtypes; cited from earlier work
T1 sequence (P08172 1-466): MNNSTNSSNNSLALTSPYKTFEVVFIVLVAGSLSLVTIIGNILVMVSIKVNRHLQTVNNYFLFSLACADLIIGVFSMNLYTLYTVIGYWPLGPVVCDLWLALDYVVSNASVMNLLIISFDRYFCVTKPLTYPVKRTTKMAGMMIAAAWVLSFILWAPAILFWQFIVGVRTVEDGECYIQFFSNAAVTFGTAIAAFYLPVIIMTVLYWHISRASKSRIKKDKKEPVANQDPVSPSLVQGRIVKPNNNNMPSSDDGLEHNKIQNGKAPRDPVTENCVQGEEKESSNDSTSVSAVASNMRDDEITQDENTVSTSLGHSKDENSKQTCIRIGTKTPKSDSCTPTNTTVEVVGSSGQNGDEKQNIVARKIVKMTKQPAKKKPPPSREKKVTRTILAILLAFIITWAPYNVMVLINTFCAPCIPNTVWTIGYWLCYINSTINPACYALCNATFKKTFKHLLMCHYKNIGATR

[3] = Stability test in 40° C./75% RH chamber with XRPD detection; type: physicochemical; conditions: bottle sealed with filter paper, after 3 days
Description: The solid samples obtained were analyzed with an X-ray powder diffraction analyzer (Bruker D8 advance) equipped with a LynxEye detector. The samples was scanned with a 20 scanning angle from 3° to 40°, a scanning step of 0.02°, a tube voltage of 40 KV and a tube current of 40 mA. The sample pan used for sample measurement is a zero background sample pan.
The bottle was sealed with filter paper, and put into a 40° C./75% RH chamber for stability test. After 3 days, the sample was taken out for XRPD detection.
About 10 mg of Crystal B was weighed in an 8 mL sample bottle. The bottle was sealed with filter paper, and put into a 40° C./75% RH chamber for stability test. After 3 days, the sample was taken out for XRPD detection.

[4] = Dynamic vapor sorption (DVS); type: physicochemical; conditions: at RH 80% humidity
Description: The dynamic vapor sorption and desorption analysis was performed on the IGA SORP (Hidenlsochema) instrument. The samples were tested in gradient mode. The test was performed in a humidity range of 0% to 90%, with an incremental humidity between each gradient of 10%. For each gradient, the shortest test time was 30 min, and the longest test time was 120 min. There is a time interval of 3 min for collecting data in the system.

M3 receptor, sequence (P20309 whole entry): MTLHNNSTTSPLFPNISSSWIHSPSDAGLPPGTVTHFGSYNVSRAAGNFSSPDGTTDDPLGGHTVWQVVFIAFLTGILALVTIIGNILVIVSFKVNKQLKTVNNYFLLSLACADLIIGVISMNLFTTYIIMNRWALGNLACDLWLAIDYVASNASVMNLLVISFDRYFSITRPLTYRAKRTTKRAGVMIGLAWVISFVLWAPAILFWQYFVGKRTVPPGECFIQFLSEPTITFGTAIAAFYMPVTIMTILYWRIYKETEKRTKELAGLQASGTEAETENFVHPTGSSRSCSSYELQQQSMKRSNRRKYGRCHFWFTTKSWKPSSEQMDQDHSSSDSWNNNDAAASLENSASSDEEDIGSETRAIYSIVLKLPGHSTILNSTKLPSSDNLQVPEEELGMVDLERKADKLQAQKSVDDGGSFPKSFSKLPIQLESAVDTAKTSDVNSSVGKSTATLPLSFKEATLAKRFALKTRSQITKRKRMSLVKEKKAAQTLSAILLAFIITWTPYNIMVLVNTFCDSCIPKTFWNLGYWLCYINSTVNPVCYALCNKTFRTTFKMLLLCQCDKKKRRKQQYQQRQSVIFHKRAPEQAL

| SMILES | effect on M3 receptor [1] | effect on M2 receptor [2] | crystal form change by XRPD detection after stability test [3] | hygroscopic weight increment [4] [%] |
| --- | --- | --- | --- | --- |
| O[C@@](CO[C@H]1C[N+]2(CCCOc3ccccc3)CCC1CC2)(c1ccccc1)C1CCCC1.[Br-] [Compound I, (2R,3R)-3-[(2-cyclopentyl-2-hydroxy-2-phenyl)ethoxy]-1-(3-phenoxypropyl)-1-azabicyclo[2,2,2]octylonium bromide] | strong effect | weak effect | – | – |
| O[C@@](CO[C@H]1C[N+]2(CCCOc3ccccc3)CCC1CC2)(c1ccccc1)C1CCCC1.[Br-] [Crystal B] | – | – | did not change | 2.58 |
